Experimental data reported in publication PMC12439338, “Designer amphiphilic helical peptide-decorated nanomicelles enable simultaneous inflammation control and triple-destruction of bacteria for treating bacterial pneumonia and sepsis” (Theranostics, 2025).
Where a SMILES comes first, the peptide text is derived from it.

Experiments:
[1] = right after preparation and overnight storage
[2] = system: bacteria-induced sepsis mouse models; conditions: cited from earlier work
Source text: The gene expressions of TLR2 and TLR4 in these patients were also correlated with that of the inflammatory cytokine IL1B (Figure S1C-F). These analyses together with reported literatures indeed confirmed the TLR2 and TLR4 up-regulation as a strong pathogenic factor in sepsis patients. Moreover, studies have shown that TLR4 knockout mice ...

LPS / TLR4 = system: LPS / TLR4; set-up: method as in 3 sources, ref 25 = [25]; PMID 34183393; doi:10.1073/pnas.2101721118; 25 Schromm AB Paulowski L Kaconis Y Kopp F Koistinen M Donoghue A Cathelicidin and PMB neutralize endotoxins by multifactorial mechanisms including LPS interaction and targeting of host cell membranes ||| ref 18, 19 = [18]; PMID 17237433; doi:10.4049/jimmunol.178.3.1829; 18 Di Nardo A Braff MH Taylor KR Na C Granstein RD McInturff JE Cathelicidin antimicrobial peptides block dendritic cell TLR4 activation and allergic contact sensitization J Immunol 2007 178 1829 34 1 || [19]; PMID 32582207; doi:10.3389/fimmu.2020.01137; 19 Scheenstra MR van Harten RM Veldhuizen EJA Haagsman HP Coorens M Cathelicidins modulate TLR-activation and inflammation Front Immunol 2020 11 1137 32582207 10.3389/fimmu.2020.01137 PMC7296178 ||| ref 44 = [44]; PMID 31364070; doi:10.1007/978-3-030-16373-0_4; 44 Li Z Velkov T Polymyxins: mode of action Adv Exp Med Biol 2019 1145 37 54 31364070 10.1007/978-3-030-16373-0_4; conditions: cited from earlier work
Source text: Bioactive peptides are functional biopolymers that can be de novo designed or derived from nature with immunoregulatory and antimicrobial activities. For example, naturally existed antimicrobial peptides (AMPs) are key players in the host-defense mechanism against the invasion of various pathogens including bacteria, fungi, viruses and parasites, [17], through the disruption of microorganism membranes. This working mechanism makes AMPs more advantageous over traditional antibiotics due to less chance for the development of drug resistance. In addition to elimination of microbes, some AMPs ... || Polymyxin B (PMB), a cationic cyclic peptide, is one of the last-line antibiotics to treat drug-resistant bacterial infection in the clinic. […] To assess the potency of our newly designed R18, we made the head-to-head comparison between R18 and polymyxin B on their TLR4 and TLR2 inhibitory activities.

TLR4/MD-2 complex = system: TLR4/MD-2 complex; set-up: method as in PMID 35238667; conditions: cited from earlier work
[3] = system: TLR4 signaling (LPS-induced NF-κB/AP-1 and IRF activation) in THP-1 reporter cell-derived macrophages; test: NF-κB/AP-1 and IRF reporter assay, LPS (TLR4); format: cell-based, human
Protocol: (§1) Cell culture. THP-1 cells were cultured in the RPMI 1640 complete medium supplemented with 10% FBS, 2 mM L-glutamine, and 1 mM sodium pyruvate, in a cell incubator containing 5% CO2 at 37°C. Zeocin (200 μg/mL or 100 μg/mL) was added to the complete medium as the selection pressure for THP-1-XBlue or THP-1-ISG reporter cells. Cells were seeded into a 96-well plate (1×10^5 cells/well) or a 24-well plate (5×10^5 cells/well), and differentiated into macrophages with PMA (50 ng/mL) for 24 h. […] The culture medium supernatants and cell lysates were collected for further analysis.
(§2) NF-κB/AP-1 and IRF reporter assay. THP-1-XBlue and THP-1-ISG reporter cells were used to assess the activation of NF-κB/AP-1 and IRF, respectively. After treatments, the culture medium (20 μL per well) was collected and mixed with the Quanti-Blue solution (180 μL) in a clean 96-well plate, which was incubated for 1-2 h at 37°C until the solution color turned into dark purple. The solution absorption at 655 nm was acquired on a microplate reader (TECAN, Mannedorf, Zurich, Switzerland).

[4] = system: TLR2 signaling (Pam3CSK4-induced NF-κB/AP-1 activation) in THP-1 reporter cell-derived macrophages; test: NF-κB/AP-1 reporter assay, Pam3CSK4 (TLR2); format: cell-based, human; conditions: 2.5, 5 and 10 μM, Pam3CSK4 10 ng/mL, co-treatment, N = 3
Protocol: as §1, §2

[5] = cited from earlier work
Source text: (§3) The fast-increasing cases of sepsis or pneumonia caused by multidrug-resistant Gram-negative bacteria in the clinics have become a global health emergency, [30]. Currently, the peptide-based polymyxin B is the last line of antibiotics to fight multidrug-resistant Gram-negative bacteria. […] Th ...

[6] = system: Gram-positive bacterial infection; conditions: cited from earlier work
Source text: as §3

For `CC(C)C[C@H](NC(=O)[C@H](CC(C)C)NC(=O)[C@H](CCCNC(=N)N)NC(=O)[C@H](Cc1c[nH]c2ccccc12)NC(=O)[C@H](CC(C)C)NC(=O)[C@H](CCCNC(=N)N)NC(=O)[C@H](CCCNC(=N)N)NC(=O)[C@H](Cc1c[nH]c2ccccc12)NC(=O)[C@H](CC(C)C)NC(=O)[C@H](CCCNC(=N)N)NC(=O)[C@H](CC(C)C)NC(=O)[C@H](Cc1c[nH]c2ccccc12)NC(=O)[C@H](CCCNC(=N)N)NC(=O)[C@H](CCCNC(=N)N)NC(=O)[C@H](CC(C)C)NC(=O)[C@H](Cc1c[nH]c2ccccc12)NC(=O)[C@@H](N)CCCNC(=N)N)C(=O)N[C@@H](CCCNC(=N)N)C(N)=O` [R18] (H-RWLRRWLRLWRRLWRLLR-NH2), the “stability and dispersibility in PBS” value [1] was “tended to form milky colloidal suspensions and precipitate overnight”.

For `CCOC(=O)C1=CCCC[C@H]1S(=O)(=O)Nc1ccc(F)cc1Cl` [TAK-242], the “disease severity in sepsis mouse models” value [2] is listed as “successfully reduced the disease severity in bacteria-induced sepsis mouse models”.

In the case of “LL-37: human host-defense peptide cathelicidin”, the “modulation of TLR4-triggered responses via LPS binding” value (LPS / TLR4) is given as “capable of modulating TLR4-triggered inflammatory responses”.

For papiliocin, the “binding to TLR4/MD-2” value (TLR4/MD-2 complex) is listed as “directly bind to the TLR4/MD-2 complex in order to block LPS-TLR4 interactions”.

In the case of polymyxin B, the “inhibition of LPS-induced NF-κB/AP-1 and IRF activation” value [3] is given as “able to effectively inhibit LPS-induced activation”, the “inhibition of Pam3CSK4-induced NF-κB/AP-1 activation” value [4] is given as “had no effect on TLR2 inhibition” and the “TLR4-mediated inflammation inhibition by antagonizing LPS” value (LPS / TLR4) is given as “capable of inhibiting TLR4-mediated inflammatory responses by antagonizing LPS”. For the same molecule, the “TLR4 antagonism by LPS neutralization” value (LPS / TLR4) was “TLR4 antagonist by neutralizing the bacterial product LPS”, the clinical toxicity [5] was “has neurotoxicity and often causes some serious kidney problems” and the “effectiveness against Gram-positive bacterial infection and inflammation” value [6] was “not effective against Gram-positive bacterial infection and the associated inflammation”.
